Measurements published in patent US4376780A, “Novel phenethylamine derivatives and bronchdilator containing the same” (Eisai Co., Ltd., priority 1976, dated 1983).
Entries after “also recorded” stand apart in the source; their conditions may differ. Structures can show the parent of a compound that is named as a salt. Where two headings read alike, the source gives them in different places.

How the values were obtained:
[1] = system: air way resistance increased by histamine; assay: Inhibitory effect on the increasing reaction of the air-way resistance of histamine (Konzett-Rossler), anesthetized dogs; type: in vivo
Experimental: Inhibitory Effect On The Increasing Reaction Of The Air-Way Resistance Of Histamine
(§1) Normally healthy dogs (body weights were 10-15 Kg) were used as subject animals, and anesthetized with sodium pentobarbital urethane. The compounds to be examined were injected into the femoral vein of the dog. The inhibitory effect on the increasing reaction of the histamine (10 μg/Kg were administered) to the air way resistance was determined by Konzett-Rossler method.

[2] = Acute toxicity, mice, oral; details: mouse, in vivo, 7 days observation
Source text: There was examined and observed the acute toxicity of the compounds to be examined for 7 days in the case of oral administration to mice.

[3] = system: asthmatous fit caused by the histamine spray; assay: Protecting effect against the dyspnea (asthmatous fit) caused by histamine spray, guinea pigs, oral; type: in vivo, guinea pigs of Hartley strain; details: for ED50: Cavia porcellus, read-out: ED 50, protecting effect on the asthmatous fit caused by the histamine spray; for protecting effect relative to the two controls, salbutamol and isoproterenol / durability action of the protecting effect / Ratio to isoproterenol (protecting effect): guinea pigs; for durability action of the protecting effect: in words; for Ratio to isoproterenol (protecting effect): isoproterenol = 100
Experimental: Protecting Effect Against The Dyspnea Caused By The Histamine
Male guinea pigs of Hartley strain were used. Aqueous solutions of the compounds to be examined were prepared in various concentrations, and administered orally to the guinea pigs, in a dose of 10 ml/Kg, respectively. After the oral administration, the guinea pigs were taken in a dome. Histamine solution in a concentration of 0.1% was sprayed through a nebulizer at a blow rate of 3500 ml/min. Two symptoms of hypoxia and fit of caughing were used as indices, and a probable appearing time of said two symptoms was watched and observed for 20 minutes from the start of the spraying.
The protecting effect was judged to be effective with the appearing time more than the double of the mean appearing time in 33 examples of the groups wherein physiological saline water was administered.

[4] = system: heart beat numbers of the anesthetized dogs; assay: Effect on the heart beat numbers, anesthetized dogs; type: in vivo; details: intravenous
Experimental: as §1
Using anesthetized dogs as same as the pharmacological experiment 2, and injecting the compounds to be examined into the dogs from the femoral vein thereof, the increasing actions to the heart beat numbers were examined.

[5] = system: blood pressure in the anesthetized dogs; assay: Effect on the blood pressure, anesthetized dogs; type: in vivo
Experimental: as §1
Effect On The Blood Pressure
Using the anesthetized dogs as same as pharmacological experiment 2, and injecting the compounds to be examined into the dogs from the femoral vein, the effect on the blood pressure was examined.

[6] = system: heart beat numbers of the guinea pig; assay: Effect on the heart beat numbers, conscious guinea pigs; type: in vivo; details: for increasing action to the heart beat numbers of the guinea pig: calculation from the product of the intensity action with the durability
Experimental: Effect On The Heart Beat Numbers
(1) Conscious guinea pigs
The guinea pigs were used, in which electrodes of stainless steel were pierced and put in both forelegs of the respective guinea pigs under previous anesthesia (after 24 hours from this operation).
The guinea pigs were isolated one by one in observation boxes, recorded their electrocardiogram (the first induction) under quiet circumstances, and heart beat numbers were counted.
All compounds to be examined were administered orally. The recording and measuring were carried out three times before the administration and with the lapse of time until 180 minutes after the administration.
Calculation From The Product Of The Intensity Action With The Durability

[7] = oral, male Hartley guinea pigs, 0.1% histamine spray

Structure (SMILES) | inhibition at 0.003 mg/kg ([1]; Canis lupus familiaris, iv, read-out: inhibitory effect on the increasing reaction of the histamine to the air way resistance) [%] | inhibitory effect on air way resistance, comparison and durability in words ([1]; intravenous, anesthetized dogs, fumarate) | LD50 at 168 h [2] [mg/kg] | ED50 ([3]; po) [mg/kg] | protecting effect relative to the two controls, salbutamol and isoproterenol ([3]; oral) | durability action of the protecting effect ([3]; oral) | Ratio to isoproterenol (protecting effect) ([3]; oral) | dosage showing increasing action to the heart beat numbers [4] | increasing action to the heart beat numbers, comparison in words [4] | dosage showing remarkable depression effect upon the blood pressure ([5]; intravenous, anesthetized dogs) | increasing action to the heart beat numbers of the guinea pig ([6]; 0.3 mg/Kg oral) | increasing action to the heart beat numbers of the guinea pig ([6]; 3 mg/Kg oral) | increasing action to the heart beat numbers of the guinea pig ([6]; 30 mg/Kg oral) | increasing action to the heart beat numbers, in words ([6]; oral, conscious guinea pigs, fumarate) | ED50 [3, 7] [mg/kg] | inhibition at 0.03 mg/kg ([1]; Canis lupus familiaris, 10 min, 30 μg/Kg, intravenous, after 10 minutes, read-out: inhibitory effect on air way resistance 10 minutes after the administration) [%] | minimal effective dose ([1]; Canis lupus familiaris, intravenous, immediately after administration, read-out: dose with distinct inhibitory effect on air way resistance immediately after the administration) [mg/kg] | depression effect on the blood pressure, in words ([5]; dog, in vivo, iv) | durability effect on the blood pressure, in words ([5]; dog, in vivo, iv)
COCc1cc(C(O)CNC(C)Cc2ccc(OC)cc2)ccc1O.O=C(O)/C=C/C(=O)O (stereo not drawn) [Compound A, 1-(4-hydroxy-3-methoxymethylphenyl)-2-(α-methyl-4-methoxyphenethylamino)ethanol fumarate] | > 50 | almost same as those of salbutamol | 1050 | 0.39 | 5-7 times | extended obviously longer than those of the two controls | 744 | more than 3 μg/Kg | weaker than that of Isoproterenol, and rather more intense than that of Salbutamol | more than 3 μg/Kg | 36.8 | 75.0 | 93.7 | distinct increasing action to the heart beat numbers with the dosage of 0.3 mg/Kg; also recorded: relatively same as that of Salbutamol and weaker than that of Isoproterenol |  |  |  |  | 
COCc1cc(C(O)CNC(C)Cc2ccc3c(c2)OCO3)ccc1O (stereo not drawn) [Compound B, 1-(4-hydroxy-3-methoxymethylphenyl)-2-(α-methyl-3,4-methylenedioxyphenethylamine)ethanol oxalate] |  |  | 1200 |  | 5-7 times | extended obviously longer than those of the two controls | 518 |  |  |  |  |  |  |  | 0.56 |  |  |  | 
COCc1cc(C(O)CNC(C)Cc2ccc(O)cc2)ccc1O.O=C(O)C(=O)O (stereo not drawn) [Compound C, 1-(4-hydroxy-3-methoxymethylphenyl)-2-(α-methyl-4-hydroxyphenethylamino)ethanol oxalate] |  |  | 1200 | 0.36 | 5-7 times | extended obviously longer than those of the two controls | 806 |  |  |  |  |  |  |  |  |  |  |  | 
CC(C)NCC(O)c1ccc(O)c(O)c1 [Isoproterenol, L-isoproterenol hydrochloride, reference compound] |  |  |  |  |  |  |  |  |  |  | 87.3 | 86.9 | 147.0 |  | 2.9 | 10 | ~0.001 | more intense depression effect than that of the compound A of this invention | relatively short in durability effect
CC(C)(C)NCC(O)c1ccc(O)c(CO)c1.Cl (stereo not shown) [Salbutamol, 1-(4-hydroxy-3-hydroxymethylphenyl)-2-(t-butylamino)-ethanol hydrochloride, reference compound] |  |  |  |  |  |  |  |  |  |  |  |  |  |  | 2.25 |  |  | rather weaker tendency | 
